Experimental data as given in ChEMBL document CHEMBL4414672, “Synthesis of certain benzothieno[3,2-d]pyrimidine derivatives as a selective SIRT2 inhibitors” (Eur J Med Chem, 2020).

Legend:
Format in all cases: functional
SK-MEL-5 = experiment: Growth inhibition of human SK-MEL-5 cells at 10^-5 M incubated for 48 hrs by sulforhodamine B assay; settings: SK-MEL-5, 48 h, read-out: GI
OVCAR-5 = experiment: Growth inhibition of human OVCAR5 cells at 10^-5 M incubated for 48 hrs by sulforhodamine B assay; settings: OVCAR-5, 48 h, read-out: GI
NCI-H322M = experiment: Growth inhibition of human NCI-H322M cells at 10^-5 M incubated for 48 hrs by sulforhodamine B assay; settings: read-out: GI
HT-29 = experiment: Growth inhibition of human HT-29 cells at 10^-5 M incubated for 48 hrs by sulforhodamine B assay; settings: HT-29, 48 h, read-out: GI
OVCAR-3 = experiment: Growth inhibition of human OVCAR3 cells at 10^-5 M incubated for 48 hrs by sulforhodamine B assay; settings: OVCAR-3, 48 h, read-out: GI
SW-620 = experiment: Growth inhibition of human SW620 cells at 10^-5 M incubated for 48 hrs by sulforhodamine B assay; settings: SW-620, 48 h, read-out: GI
OVCAR-8 = experiment: Growth inhibition of human OVCAR8 cells at 10^-5 M incubated for 48 hrs by sulforhodamine B assay; settings: OVCAR-8, 48 h, read-out: GI
A498 = experiment: Growth inhibition of human A498 cells at 10^-5 M incubated for 48 hrs by sulforhodamine B assay; settings: A498, 48 h, read-out: GI
IGROV-1 = experiment: Growth inhibition of human IGROV1 cells at 10^-5 M incubated for 48 hrs by sulforhodamine B assay; settings: IGROV-1, 48 h, read-out: GI
NCI-H226 = experiment: Growth inhibition of human NCI-H226 cells at 10^-5 M incubated for 48 hrs by sulforhodamine B assay; settings: NCI-H226, 48 h, read-out: GI
SN12C = experiment: Growth inhibition of human SN12C cells at 10^-5 M incubated for 48 hrs by sulforhodamine B assay; settings: read-out: GI
SF-268 = experiment: Growth inhibition of human SF268 cells at 10^-5 M incubated for 48 hrs by sulforhodamine B assay; settings: SF-268, 48 h, read-out: GI
NCI-H23 = experiment: Growth inhibition of human NCI-H23 cells at 10^-5 M incubated for 48 hrs by sulforhodamine B assay; settings: NCI-H23, 48 h, read-out: GI
K562 = experiment: Growth inhibition of human K562 cells at 10^-5 M incubated for 48 hrs by sulforhodamine B assay; settings: K562, 48 h, read-out: GI
NCI/ADR-RES = experiment: Growth inhibition of human NCI/ADR-RES cells at 10^-5 M incubated for 48 hrs by sulforhodamine B assay; settings: read-out: GI
MDA-MB-231 = experiment: Growth inhibition of human MDA-MB-231 cells at 10^-5 M incubated for 48 hrs by sulforhodamine B assay; settings: MDA-MB-231, 48 h, read-out: GI
Hs-578T = experiment: Growth inhibition of human Hs 578T cells at 10^-5 M incubated for 48 hrs by sulforhodamine B assay; settings: read-out: GI
UACC-257 = experiment: Growth inhibition of human UACC257 cells at 10^-5 M incubated for 48 hrs by sulforhodamine B assay; settings: UACC-257, 48 h, read-out: GI
EKVX = experiment: Growth inhibition of human EKVX cells at 10^-5 M incubated for 48 hrs by sulforhodamine B assay; settings: read-out: GI
SNB-75 = experiment: Growth inhibition of human SNB75 cells at 10^-5 M incubated for 48 hrs by sulforhodamine B assay; settings: SNB-75, 48 h, read-out: GI
HOP-92 = experiment: Growth inhibition of human HOP92 cells at 10^-5 M incubated for 48 hrs by sulforhodamine B assay; settings: HOP-92, 48 h, read-out: GI
UACC-62 = experiment: Growth inhibition of human UACC62 cells at 10^-5 M incubated for 48 hrs by sulforhodamine B assay; settings: UACC-62, 48 h, read-out: GI
SK-OV-3 = experiment: Growth inhibition of human SKOV3 cells at 10^-5 M incubated for 48 hrs by sulforhodamine B assay; settings: SK-OV-3, 48 h, read-out: GI
BT-549 = experiment: Growth inhibition of human BT549 cells at 10^-5 M incubated for 48 hrs by sulforhodamine B assay; settings: BT-549, 48 h, read-out: GI
DU-145 = experiment: Growth inhibition of human DU145 cells at 10^-5 M incubated for 48 hrs by sulforhodamine B assay; settings: DU-145, 48 h, read-out: GI
A549 = experiment: Growth inhibition of human A549/ATCC cells at 10^-5 M incubated for 48 hrs by sulforhodamine B assay; settings: A549, 48 h, read-out: GI
RXF 393 = experiment: Growth inhibition of human RXF393 cells at 10^-5 M incubated for 48 hrs by sulforhodamine B assay; settings: RXF 393, 48 h, read-out: GI
MCF7 = experiment: Growth inhibition of human MCF7 cells at 10^-5 M incubated for 48 hrs by sulforhodamine B assay; settings: MCF7, 48 h, read-out: GI
HCC 2998 = experiment: Growth inhibition of human HCC2998 cells at 10^-5 M incubated for 48 hrs by sulforhodamine B assay; settings: HCC 2998, 48 h, read-out: GI
SR = experiment: Growth inhibition of human SR cells at 10^-5 M incubated for 48 hrs by sulforhodamine B assay; settings: read-out: GI
COLO 205 = experiment: Growth inhibition of human COLO205 cells at 10^-5 M incubated for 48 hrs by sulforhodamine B assay; settings: COLO 205, 48 h, read-out: GI
ACHN = experiment: Growth inhibition of human ACHN cells at 10^-5 M incubated for 48 hrs by sulforhodamine B assay; settings: read-out: GI
PC-3 = experiment: Growth inhibition of human PC3 cells at 10^-5 M incubated for 48 hrs by sulforhodamine B assay; settings: PC-3, 48 h, read-out: GI
CAKI-1 = experiment: Growth inhibition of human Caki1 cells at 10^-5 M incubated for 48 hrs by sulforhodamine B assay; settings: CAKI-1, 48 h, read-out: GI
M14 = experiment: Growth inhibition of human M14 cells at 10^-5 M incubated for 48 hrs by sulforhodamine B assay; settings: M14, 48 h, read-out: GI
Malme-3M = experiment: Growth inhibition of human MALME-3M cells at 10^-5 M incubated for 48 hrs by sulforhodamine B assay; settings: read-out: GI
U-251 = experiment: Growth inhibition of human U251 cells at 10^-5 M incubated for 48 hrs by sulforhodamine B assay; settings: U-251, 48 h, read-out: GI
TK-10 = experiment: Growth inhibition of human TK10 cells at 10^-5 M incubated for 48 hrs by sulforhodamine B assay; settings: TK-10, 48 h, read-out: GI
MDA-MB-468 = experiment: Growth inhibition of human MDA-MB-468 cells at 10^-5 M incubated for 48 hrs by sulforhodamine B assay; settings: MDA-MB-468, 48 h, read-out: GI

| Structure (SMILES) | inhibition of growth at 10 µM (SK-MEL-5) [%] | inhibition of growth at 10 µM (OVCAR-5) [%] | inhibition of growth at 10 µM (NCI-H322M) [%] | inhibition of growth at 10 µM (HT-29) [%] | inhibition of growth at 10 µM (OVCAR-3) [%] | inhibition of growth at 10 µM (SW-620) [%] | inhibition of growth at 10 µM (OVCAR-8) [%] | inhibition of growth at 10 µM (A498) [%] | inhibition of growth at 10 µM (IGROV-1) [%] | inhibition of growth at 10 µM (NCI-H226) [%] | inhibition of growth at 10 µM (SN12C) [%] | inhibition of growth at 10 µM (SF-268) [%] | inhibition of growth at 10 µM (NCI-H23) [%] | inhibition of growth at 10 µM (K562) [%] | inhibition of growth at 10 µM (NCI/ADR-RES) [%] | inhibition of growth at 10 µM (MDA-MB-231) [%] | inhibition of growth at 10 µM (Hs-578T) [%] | inhibition of growth at 10 µM (UACC-257) [%] | inhibition of growth at 10 µM (EKVX) [%] | inhibition of growth at 10 µM (SNB-75) [%] | other results |
| --- | --- | --- | --- | --- | --- | --- | --- | --- | --- | --- | --- | --- | --- | --- | --- | --- | --- | --- | --- | --- | --- |
| O=C1/C(=C\c2cccc([N+](=O)[O-])c2)Sc2ccc(Cl)cc21 | 8.13 | -1.89 | 4.18 | -3.12 | -2.4 | 2.49 | 0.87 | 11.5 | 19.9 | 5.97 | -12.1 | 7.22 | 16.7 | 10.5 | 7.92 | 9.23 | -8.12 | -6.4 | 4.33 | 12.3 | inhibition of growth at 10 µM (HOP-92): 42.7%; inhibition of growth at 10 µM (UACC-62): 29.5%; inhibition of growth at 10 µM (SK-OV-3): 5.38%; inhibition of growth at 10 µM (BT-549): 20.8%; inhibition of growth at 10 µM (DU-145): -3.94%; inhibition of growth at 10 µM (A549): -6.89%; inhibition of growth at 10 µM (RXF 393): 15.7%; inhibition of growth at 10 µM (MCF7): 22.4%; inhibition of growth at 10 µM (HCC 2998): -36.5%; inhibition of growth at 10 µM (SR): 54.8%; inhibition of growth at 10 µM (COLO 205): -6.01%; inhibition of growth at 10 µM (ACHN): 27%; inhibition of growth at 10 µM (PC-3): -3.94%; inhibition of growth at 10 µM (CAKI-1): -4.55%; inhibition of growth at 10 µM (M14): 4.61%; inhibition of growth at 10 µM (Malme-3M): 22.4%; inhibition of growth at 10 µM (U-251): 13.8%; inhibition of growth at 10 µM (TK-10): -12.1%; inhibition of growth at 10 µM (MDA-MB-468): 13.1% |
| Cc1cc(C)n(C2=Nc3c(sc4ccc(Cl)cc34)C(c3cccc([N+](=O)[O-])c3)N2)n1 (stereo not drawn) | 4.68 | -4.21 | 0.71 | -2.6 | -2.22 | -3.97 | 0.5 | 1.15 | 20.6 | 17.1 | 5.84 | 1.15 | 23 | 4.14 | -2.52 | 18.8 | 0.17 | -4.2 | 24.2 | 7.66 | inhibition of growth at 10 µM (HOP-92): -4.25%; inhibition of growth at 10 µM (UACC-62): 9.64%; inhibition of growth at 10 µM (SK-OV-3): 11.4%; inhibition of growth at 10 µM (BT-549): -17.8%; inhibition of growth at 10 µM (DU-145): -11.3%; inhibition of growth at 10 µM (A549): 3.8%; inhibition of growth at 10 µM (RXF 393): -9.71%; inhibition of growth at 10 µM (MCF7): 20.6%; inhibition of growth at 10 µM (HCC 2998): -5.86%; inhibition of growth at 10 µM (SR): -4.84%; inhibition of growth at 10 µM (COLO 205): -5.86%; inhibition of growth at 10 µM (ACHN): 11.2%; inhibition of growth at 10 µM (PC-3): 18.6%; inhibition of growth at 10 µM (CAKI-1): 26.4%; inhibition of growth at 10 µM (M14): -4.17%; inhibition of growth at 10 µM (Malme-3M): -2.21%; inhibition of growth at 10 µM (U-251): -3.95%; inhibition of growth at 10 µM (TK-10): -12.7%; inhibition of growth at 10 µM (MDA-MB-468): 8.16% |
